Experimental data: patent US7064204B2, “Pharmaceutically active compounds having a tricyclic pyrazolotriazolopyrimidine ring structure and methods of use” (King Pharmacueticals Reserch and Development, Inc., priority 2002, dated 2006)
One block for each compound: values may come before it.

How the values were obtained:
[1] = target: T1, human A1 adenosine receptors (Homo sapiens, UniProt P30542); experiment: Displacement of [3H]DPCPX binding at human A1 adenosine receptors expressed in CHO cells; conditions: Table 3: [3H]DPCPX, human A1, CHO cells
T1 construct: expressed in transfected cells; host or cells: CHO cells
T1 sequence (P30542 1-326): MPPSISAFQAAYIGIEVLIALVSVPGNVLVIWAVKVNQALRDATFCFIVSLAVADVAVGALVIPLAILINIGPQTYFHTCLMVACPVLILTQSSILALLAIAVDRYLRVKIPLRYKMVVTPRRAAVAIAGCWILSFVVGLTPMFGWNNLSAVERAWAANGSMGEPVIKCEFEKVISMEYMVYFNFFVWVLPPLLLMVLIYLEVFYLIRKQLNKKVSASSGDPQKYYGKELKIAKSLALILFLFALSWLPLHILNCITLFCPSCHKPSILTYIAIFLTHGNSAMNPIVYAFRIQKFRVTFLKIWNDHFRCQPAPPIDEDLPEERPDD

[2] = target: T2, human A2A adenosine receptors (Homo sapiens, UniProt P29274); experiment: Displacement of [3H]SCH58261 binding at human A2A adenosine receptors expressed in CHO cells; conditions: Table 3: [3H]SCH58261, human A2A, CHO cells
T2 construct: expressed in transfected cells; host or cells: CHO cells

[3] = target: T3, human A2B adenosine receptors (Homo sapiens, UniProt P29275); experiment: Displacement of [3H]DPCPX binding at human A2B adenosine receptors expressed in HEK-293 cells; conditions: Table 3: [3H]DPCPX, HEK-293 cells
T3 construct: expressed in transfected cells; host or cells: HEK-293 cells
T3 sequence (P29275 1-332): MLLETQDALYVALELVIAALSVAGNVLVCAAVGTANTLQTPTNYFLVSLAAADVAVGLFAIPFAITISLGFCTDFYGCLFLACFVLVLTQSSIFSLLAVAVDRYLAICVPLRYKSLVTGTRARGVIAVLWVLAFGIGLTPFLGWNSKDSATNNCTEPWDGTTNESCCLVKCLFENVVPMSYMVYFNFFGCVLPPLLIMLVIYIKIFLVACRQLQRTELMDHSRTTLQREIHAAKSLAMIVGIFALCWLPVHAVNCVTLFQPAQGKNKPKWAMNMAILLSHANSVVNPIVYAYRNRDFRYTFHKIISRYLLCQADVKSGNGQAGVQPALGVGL

[4] = target: T4, human A3 adenosine receptors (Homo sapiens, UniProt P0DMS8); experiment: Displacement of [3H]MRE 3008F20 binding at human A3 adenosine receptors expressed in CHO cells; parameters: expressed in transfected cells; host or cells: CHO cells; conditions: for Ki: Table 3: [3H]MRE 3008F20, human A3, CHO cells
T4 sequence (P0DMS8 1-318): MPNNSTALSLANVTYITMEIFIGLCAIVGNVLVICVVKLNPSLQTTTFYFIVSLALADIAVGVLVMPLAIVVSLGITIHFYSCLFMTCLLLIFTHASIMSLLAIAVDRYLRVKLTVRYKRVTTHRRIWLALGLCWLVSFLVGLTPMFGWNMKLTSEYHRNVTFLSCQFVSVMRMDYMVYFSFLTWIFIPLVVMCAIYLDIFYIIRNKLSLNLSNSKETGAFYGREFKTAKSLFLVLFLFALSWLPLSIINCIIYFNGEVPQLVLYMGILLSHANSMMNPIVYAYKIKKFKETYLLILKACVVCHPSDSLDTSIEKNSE

[5] = Water solubility (stated in words); format: physicochemical
[6] = target: T4, human A3 adenosine receptors; experiment: Displacement of [125I]AB MECA binding at human A3 adenosine receptors expressed in HEK-293 cells; parameters: expressed in transfected cells; conditions: Table 2, footnote a: [125I]AB MECA, human A3, HEK-293 cells

T2 sequence (P29274 whole entry): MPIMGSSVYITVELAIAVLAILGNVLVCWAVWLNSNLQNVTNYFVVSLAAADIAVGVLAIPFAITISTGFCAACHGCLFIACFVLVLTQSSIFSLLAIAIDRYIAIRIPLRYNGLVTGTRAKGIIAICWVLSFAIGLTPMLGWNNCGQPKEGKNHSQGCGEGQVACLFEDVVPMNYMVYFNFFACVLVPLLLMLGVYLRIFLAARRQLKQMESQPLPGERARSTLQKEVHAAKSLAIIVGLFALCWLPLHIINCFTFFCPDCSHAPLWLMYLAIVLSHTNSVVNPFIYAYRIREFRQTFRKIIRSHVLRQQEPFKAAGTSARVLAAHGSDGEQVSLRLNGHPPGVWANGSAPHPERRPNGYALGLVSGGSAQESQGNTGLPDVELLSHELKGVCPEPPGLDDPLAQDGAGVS

Ki [1]: 136 nM
Ki [2]: 61 nM
Ki [3]: 65 nM
Ki [4]: 183 nM
Structure (SMILES): CCNc1c2c(nc(NC(=O)Cc3ccc4c(c3)OCO4)n3nc(-c4ccco4)nc23)nn1C [Compound 50, 2-Benzo[1,3]dioxol-5-yl-N-(9-ethylamino-2-furan-2-yl-8-methyl-8H-pyrazolo[4,3-e][1,2,4]triazolo[1,5-c]pyrimidin-5-yl)-acetamide]

Ki ([1]; hydrochloride salt): 100 nM
Ki [2]: 16 nM
Ki ([3]; hydrochloride salt): 23 nM
water solubility [5]: complete water solubility
Ki [4]: 9 nM
selectivity for A3 versus the other adenosine receptor subtypes ([4]; in words): very low
affinity for / interaction with A3 adenosine receptor subtype ([4]; in words, discussion of Tables 2 and 3): increased
Structure (SMILES): CCNc1c2c(nc(NC(=O)Nc3ccc(OC)cc3)n3nc(-c4ccco4)nc23)nn1C.Cl [Compound 55, 1-(9-Ethylamino-2-furan-2-yl-8-methyl-8H-pyrazolo[4,3-e][1,2,4]triazolo[1,5-c]pyrimidin-5-yl)-3-(4-methoxy-phenyl)-urea hydrochloride salt]

water solubility [5]: significant water solubility
Structure (SMILES): CSc1c2c(nc(N)n3nc(-c4ccc(CN5CCN(C)CC5)o4)nc23)nn1C [Compound 56]

Ki [6]: > 1000 nM
Structure (SMILES): Nc1nc2c(cnn2CCc2ccccc2)c2nc(-c3ccco3)nn12 [SCH 58261, 5-amino-7-(2-phenylethyl)-2-(2-furyl)pyrazolo[4,3-e]1,2,4-triazolo[1,5-c]pyrimidine]
